Reference: patent publication US10550155B2, “Anticancer peptides” (priority 2018, dated 2020)
Where a SMILES comes first, the peptide text is derived from it. Where no end group is shown, it is not given here.

Assays:
THP-1 monocytes = settings: cited from earlier work
HeLa cells = test: MTT cytotoxicity assay, HeLa cells; type: cell-based; settings: MTT
Procedure: (§1) The cytotoxic as well as antiproliferative effect of peptides was determined using MTT [3-(4, 5-dimethylthiazol-2-yl)-2, 5-diphenyl tetrazolium bromide] colorimetric assay. MCF-7, NIH-3T3, HeLa and H460 cells were cultured and after confluency, cells were used to test the cytotoxicity by MTT assay. Briefly (3×10^4/mL) of MCF-7 and (2×10^4/mL) cells of NIH-3T3, HeLa and H460 were seeded in 96-wells plate and incubated at 37° C. in 5% CO2 for 24 h. The MCF-7 cells were then treated with different doses of peptides and re-incubated in 5% CO2 at 37° C. for 48 hours. […] Experiment was performed three times and all doses were repeated in triplicate and the calculations were done using formula for percent inhibition.

[1] = MTT cytotoxicity assay, 3T3 cells; type: cell-based, mouse; settings: mouse, Cytotoxicity IC50, 3T3
Procedure: as §1

[2] = test system: THP-1-derived macrophages; settings: cited from earlier work
human erythrocytes = settings: cited from earlier work
fibroblasts = settings: cited from earlier work
[3] = test system: Leishmania infantum promastigote and amastigote; settings: cited from earlier work
H460 cells = test: MTT cytotoxicity assay, H460 cells; type: cell-based; settings: MTT
Procedure: as §1

[4] = test system: bacteria, yeasts, fungi, and protozoa; settings: cited from earlier work
[5] = test system: DoHH2 cells (B-cell lymphoma); test: Alamar blue viability assay, DoHH2 cells; type: cell-based; settings: Alamar blue
Procedure: The viability of DoHH2 cells was determined by Alamar blue assay. Briefly 200 μl of 1×10^5 cells/ml were incubated with different concentrations of compounds for 24 hours. A one-tenth volume of Alamar blue was then added and the incubation continued for 4 hrs. Absorbance was read in spectrophotometer at wavelengths of 570 nm and 600 nm.

[6] = test system: MCF-7 human breast cancer cell line; test: MTT cytotoxicity assay, MCF-7 cells; type: cell-based; settings: MTT
Procedure: as §1

MCF-7 cells = test: Cell-growth on bead assay; type: cell-based, human; settings: peptide on bead

Row | Compound | Cytotoxicity on THP-1 monocytes (literature) (THP-1 monocytes) | Activity against HeLa cell line (in words) (HeLa cells) | IC50 (HeLa cells; 48 hours, read-out: Cytotoxicity IC50, HeLa) [µM] | IC50 [1] [µM] | Cytotoxicity on THP-1-derived macrophages (literature) [2] | Cytotoxicity on human erythrocytes (literature) (human erythrocytes) | Cytotoxicity on fibroblasts (literature) (fibroblasts) | Antiparasitic activity (literature) [3] | Activity against H460 cell line (in words) (H460 cells) | IC50 (H460 cells; 48 hours, read-out: Cytotoxicity IC50, H460) [µM] | Antimicrobial / antibacterial activity (literature) [4] | Activity against DoHH2 cell line (in words) [5] | IC50 ([5]; 24 hours, read-out: Cytotoxicity IC50, DoHH2) [µM] | Activity against MCF-7 cell line (in words) [6] | IC50 ([6]; 48 hours, read-out: Cytotoxicity IC50, MCF-7) [µM] | Binding to MCF-7 cells (MCF-7 cells)
1 | CC[C@H](C)[C@H](NC(=O)CNC(=O)[C@H](CO)NC(=O)[C@H](CC(C)C)NC(=O)[C@@H](N)Cc1ccccc1)C(=O)N[C@H](C(=O)NCC(=O)N[C@@H](CCSC)C(=O)N[C@@H](CC(C)C)C(=O)NCC(=O)N[C@@H](CCCCN)C(=O)N[C@@H](CC(C)C)C(=O)N[C@@H](Cc1ccccc1)C(N)=O)C(C)C [peptide 1, F-L-S-G-I-V-G-M-L-G-K-L-F, reference compound] (H-FLSGIVGMLGKLF-NH2) | low cytotoxicity | active | 18.4 ± 0.92 | 73.3 ± 0.07 | low cytotoxicity | low cytotoxicity | no cytotoxicity | antiparasitic activity | active | 34.5 ± 1.5 | potent inhibitor | no cytotoxicity | > 100 | active | 14.5 ± 0.57 | –
2 | WLEAAYQKFL (not fully specified) [peptide A, breast cancer targeting peptide ligand] | – | – | – | – | – | – | – | – | – | – | – | – | – | – | – | strong binding
